# Reference: patent US20090029981A1, “SUBSTITUTED 4-PHENYLPIPERIDINES” (priority 2006, published 2009)
# Target: T1, renin (Homo sapiens, UniProt P00797)
# T1 construct: This test measures the formation of angiotensin I in human plasma; from tissue; host or cells: human plasma
# T1 sequence (P00797 67-406): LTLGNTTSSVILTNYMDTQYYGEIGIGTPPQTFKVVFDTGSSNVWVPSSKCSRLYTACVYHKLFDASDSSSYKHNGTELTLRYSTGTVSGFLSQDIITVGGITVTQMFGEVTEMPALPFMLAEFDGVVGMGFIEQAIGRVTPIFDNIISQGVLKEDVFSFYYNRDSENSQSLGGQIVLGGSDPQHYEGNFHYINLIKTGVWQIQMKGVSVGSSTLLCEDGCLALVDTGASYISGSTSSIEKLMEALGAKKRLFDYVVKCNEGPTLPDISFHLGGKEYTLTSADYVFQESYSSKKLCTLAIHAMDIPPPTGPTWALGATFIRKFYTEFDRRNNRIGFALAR
# Assay: Formation of angiotensin I in human plasma (in vitro test of Nussberger et al.), radio-immunoassay
# Format: biochemical
# Details: one range stated for the listed examples together, about, read-out: IC50, concentration of the inhibitor which reduces the formation of angiotensin I by 50%
# Description: The compounds of the formula (I) or (IA), and their pharmaceutically acceptable salts have an inhibitory effect on the natural enzyme renin. The latter passes from the kidneys into the blood and there brings about the cleavage of angiotensinogen to form the decapeptide angiotensin I which is then cleaved in the lung, the kidneys and other organs to the octa-peptide angiotensin II. Angiotensin II raises the blood pressure both directly by arterial constriction, and indirectly by releasing the hormone aldosterone, which retains sodium ions, from the adrenals, which is associated with an increase in the extracellular fluid volume. This increase is attributable to the effect of angiotensin II itself or of the heptapeptide angiotensin III formed therefrom as cleavage product. Inhibitors of the enzymatic activity of renin bring about a reduction in the formation of angiotensin I and, as a consequence thereof, the formation of a smaller amount of angiotensin II. The reduced concentration of this active peptide hormone is the direct cause of the blood pressure-lowering effect of renin inhibitors.
# The effect of renin inhibitors is detected inter alia experimentally by means of in vitro tests where the reduction in the formation of angiotensin I is measured in various systems (human plasma, purified human renin together with synthetic or natural renin substrate). The following in vitro test of Nussberger et al. (1987) J. Cardiovascular Pharmacol., Vol. 9, pp. 39-44, is used inter alia. This test measures the formation of angiotensin I in human plasma. The amount of angiotensin I formed is determined in a subsequent radio-immunoassay. The effect of inhibitors on the formation of angiotensin I is tested in this system by adding various concentrations of these substances. The IC50 is defined as the concentration of the particular inhibitor which reduces the formation of angiotensin I by 50%. The compounds of the present invention show inhibitory effects in the in vitro systems at minimal concentrations of about 10^−6 to about 10^−10 mol/l.
row,Structure (SMILES),IC50 [nM]
1,"C#CCO[C@@H]1CNC[C@H](OCc2ccc3c(c2)N(CCCOC)CCO3)C1c1ccc(OC)cc1 (stereo in doubt) [Example 5, 6-[(3R,4R,5S)-4-(4-Methoxyphenyl)-5-prop-2-ynyloxypiperidin-3-yloxymethyl]-4-(3-methoxy-propyl)-3,4-dihydro-2H-benzo[1,4]oxazine]",3.8 to 814
2,"COCCCN1CCOc2ccc(CO[C@H]3CNC[C@@H](OC[C@@H](O)COC)[C@@H]3c3ccc(C#N)cc3)cc21 [Example 74, 4-{(3S,4R,5R)-3((S)-2-Hydroxy-3-methoxypropoxy)-5-[4-(3-methoxypropyl)-3,4-dihydro-2H-benzo[1,4]oxazin-6-ylmethoxy]piperidin-4-yl}-benzonitrile]",3.8 to 814
3,"COCCCN1CCOc2ccc(CO[C@H]3CNC[C@@H](OC[C@H](O)COC)[C@@H]3c3ccc(OC)cc3)cc21 [Example 2, (R)-1-Methoxy-3-{(3S,4R,5R)-4-(4-methoxyphenyl)-5-[4-(3-methoxypropyl)-3,4-dihydro-2H-benzo[1,4]oxazin-6-ylmethoxy]piperidin-3-yloxy}propan-2-ol]",3.8 to 814
4,"COCCCN1CCOc2ccc(CO[C@H]3CNC[C@@H](OC[C@H](O)COC)[C@@H]3c3ccc(SCCOC)cc3)cc21 [Example 70, (R)-1-Methoxy-3-{(3S,4R,5R)-4-[4-(2-methoxyethylsulfanyl)phenyl]-5-[4-(3-methoxy-propyl)-3,4-dihydro-2H-benzo[1,4]oxazin-6-ylmethoxy]piperidin-3-yloxy}propan-2-ol]",3.8 to 814
5,"COCCCN1CCOc2ccc(CO[C@H]3CNC[C@@H](OC[C@H](O)COC)[C@@H]3c3ccc(C#N)cc3)cc21 [Example 73, 4-{(3S,4R,5R)-3((R)-2-Hydroxy-3-methoxypropoxy)-5-[4-(3-methoxypropyl)-3,4-dihydro-2H-benzo[1,4]oxazin-6-ylmethoxy]piperidin-4-yl}benzonitrile]",3.8 to 814
6,"COCCCN1CCOc2ccc(CO[C@H]3CNC[C@@H](OCCN4[C@H](C)COC[C@@H]4C)[C@@H]3c3ccc(OC)cc3)cc21 [Example 68, 6-[(3R,4R,5S)-5-[2-((3R,5S)-3,5-Dimethylmorpholin-4-yl)ethoxy]-4-(4-methoxy-phenyl)piperidin-3-yloxymethyl]-4-(3-methoxypropyl)-3,4-dihydro-2H-benzo[1,4]oxazine]",3.8 to 814
7,"COCCCSc1ccc([C@@H]2[C@@H](OCc3ccc4c(c3)N(CCCOC)CCO4)CNC[C@H]2OC[C@H](O)COC)cc1 [Example 71, (R)-1-Methoxy-3-{(3S,4R,5R)-5-[4-(3-methoxypropyl)-3,4-dihydro-2H-benzo[1,4]oxazin-6-ylmethoxy]-4-[4-(3-methoxypropylsulfanyl)phenyl]piperidin-3-yloxy}propan-2-ol]",3.8 to 814

# Now from value to compound:
row,IC50 [nM],Structure (SMILES)
1,3.8 to 814,"COCCCN1CCOc2ccc(CO[C@H]3CNC[C@@H](OCC(=O)N4[C@H](C)COC[C@@H]4C)[C@@H]3c3ccc(OC)cc3)cc21 [Example 61, 1-((3S,5R)-3,5-Dimethylmorpholin-4-yl)-2-{(3S,4R,5R)-4-(4-methoxyphenyl)-5-[4-(3-methoxypropyl)-3,4-dihydro-2H-benzo[1,4]oxazin-6-ylmethoxy]piperidin-3-yloxy}-ethanone]"
2,3.8 to 814,"COCCCN1CCOc2ccc(CO[C@H]3CNC[C@@H](CNC(C)=O)[C@@H]3c3ccc(OC)cc3)cc21 [Example 91, N-{(3S,4R,5R)-4-(4-Methoxyphenyl)-5-[4-(3-methoxypropyl)-3,4-dihydro-2H-benzo[1,4]oxazin-6-ylmethoxy]piperidin-3-ylmethyl}acetamide]"
3,3.8 to 814,"COCCCN1CCOc2ccc(CO[C@H]3CNC[C@@H](OCC(C)(C)OC)[C@@H]3c3ccc(OC)cc3)cc21 [Example 8, 6-[(3R,4R,5S)-5-(2-Methoxy-2-methylpropoxy)-4-(4-methoxyphenyl)piperidin-3-yloxymethyl]-4-(3-methoxypropyl)-3,4-dihydro-2H-benzo[1,4]oxazine]"
4,3.8 to 814,"COCCCN1CCOc2ccc(CO[C@H]3CNC[C@@H](OCC#N)[C@@H]3c3ccc(OC)cc3)cc21 [Example 1, {(3S,4R,5R)-4-(4-Methoxyphenyl)-5-[4-(3-methoxypropyl)-3,4-dihydro-2H-benzo[1,4]oxazin-6-ylmethoxy]piperidin-3-yloxyl}acetonitrile]"
5,3.8 to 814,"COCCCN1CCOc2ccc(CO[C@H]3CNC[C@@H](CNC(C)C)[C@@H]3c3ccc(OC)cc3)cc21 [Example 87, Isopropyl-{(3S,4R,5R)-4-(4-methoxyphenyl)-5-[4-(3-methoxypropyl)-3,4-dihydro-2H-benzo[1,4]oxazin-6-ylmethoxy]piperidin-3-ylmethyl}amine]"
